According to patent US11123398B2, “Chemotherapeutic combinations of cationic antimicrobial peptides and chemotherapeutics” (LYTIX BIOPHARMA AS, priority 2014, dated 2021):
Non-standard residues stand in square brackets, D forms with d. Residues, ends and D or L forms follow the SMILES beside them. No end group written: not given here. dBip = N[C@H](Cc1ccc(-c2ccccc2)cc1)C(=O)O; Dip = N[C@H](C(=O)O)C(c1ccccc1)c1ccccc1

Tests used:
[1] = system: Hep G2 cell line; assay type: cell-based, human; conditions: 4 h
Method: (§1) Tumor cells were plated in 96-well flat-bottom microtitration plates (Nunc, Dutscher, Brumath, France) and incubated at 37° C. for 24 hours before treatment in 190 μl of drug-free culture medium supplemented or not with 10% FBS for adherent or suspension growing cell lines, respectively.
(§2) The adherent cell lines were washed once with 200 μl FBS-free culture medium before treatment. Tumor cells were incubated for 4 hours with 10 concentrations of compounds in ¼ dilution step with a top dose of 400 μM (range 4×10^−4 to 4×10^−10 M), with 1% (final concentration) Triton X-100 as positive control and FBS-free culture medium as negative control. The cells (190 μl) were incubated in a 200 μl final volume of FBS-free culture medium containing test substances at 37° C. under 5% CO2.
(§3) Three independent experiments were performed, each concentration being tested in quadruplicate. Control cells were treated with vehicle alone. At the end of treatments, the cytotoxic activity was evaluated by a MTS assay (see § 3.3.).
(§4) Like MTT, MTS is bioreduced by cells into a formazan product that is directly soluble in culture medium without processing, unlike MTT.
(§5) At the end of the cells treatment, 40 μl of a 0.22 μm filtered freshly combined solution of MTS (20 ml at 2 mg/ml, Ref G1111, Batch 235897, Exp March 2009, Promega, Charbonnières, France) and PMS (1 ml at 0.92 mg/ml, Ref P9625, Batch 065K0961, Sigma) in Dulbecco's Phosphate Buffered Saline (DPBS, Ref 17-513Q, Batch 6MB0152, Cambrex), were added in each well. Culture plates were incubated for 2 h at 37° C. Absorbency (OD) were measured at 490 nm in each well using VICTOR^3™ 1420 multilabeled counter (Wallac, PerkinElmer, Courtaboeuf, France).
(§6) IC50: drug concentration to obtain a 50% inhibition of cell proliferation.
(§7) The dose-response curves were plotted using XLFit 3 (IDBS, United Kingdom). The IC50 determination values were calculated using the XLFit 3 software from semi-log curves. Individual IC50 determination values as well as mean and SD values were generated.

[2] = system: T-47D cell line; assay type: cell-based, human; conditions: 4 h
Method: as §1, §2, §3, §4, §5, §6, §7

[3] = system: panel of 37 human cancer cell lines; assay type: cell-based; conditions: for IC50: 4 h; for IC50 range against 37 human cancer cell lines: conclusion
Method: as §2, with “Tumor cells were incubated for 4 hours with 10 concentrations of” left out
as §3, §4, §5, §6, §7

[4] = system: HL-60/ADR; experiment: MTS cytotoxicity assay, HL-60/ADR; assay type: cell-based, human; conditions: IC50 resistant / IC50 sensitive line; doxorubicin resistance
Method: as §1, §2, §3, §4, §5, §6, §7
(§8) Resistance index was calculated using the following formula: […]
(§9) Resistance index was calculated for each compound for each couple of sensitive and resistant cell lines. Individual resistance index was calculated when IC50 values of both sensitive and corresponding resistant cell lines were determined within same experiment. In addition, resistance index was also calculated ratio of mean IC50 values obtained during three independent experiments.

[5] = system: MCF-7/mdr; experiment: MTS cytotoxicity assay, MCF-7/mdr; assay type: cell-based, human; conditions: IC50 resistant / IC50 sensitive line; doxorubicin resistance
Method: as §1, §2, §3, §4, §5, §6, §7, §8, §9

[6] = system: IGROV-1/CDDP; experiment: MTS cytotoxicity assay, IGROV-1/CDDP; assay type: cell-based, human; conditions: IC50 resistant / IC50 sensitive line; cisplatin resistance
Method: as §1, §2, §3, §4, §5, §6, §7, §8, §9

[7] = system: Hs 445 cell line; assay type: cell-based, human; conditions: 4 h
Method: (§10) Tumor cells were plated in 96-well flat-bottom microtitration plates (Nunc, Dutscher, Brumath, France) and incubated at 37° C. for 24 hours before treatment in 190 μl of drug-free and FBS-free culture medium.
as §2, with “Tumor” for “The adherent cell lines were washed once with 200 μl FBS-free culture medium before treatment. Tumor”, “[…]” for “4×10^−10”
(§11) Three independent experiments were performed, each concentration being issued from quadruplicate. Control cells were treated with vehicle alone. At the end of treatments, the cytotoxic activity was evaluated by a MTS assay (see § 3.3 below).
as §4, §5
(§12) 4.1. IC50 Data was Determined as in Example 1

[8] = system: Raji cell line; assay type: cell-based, human; conditions: 4 h
Method: as §10
as §2, with “Tumor” for “The adherent cell lines were washed once with 200 μl FBS-free culture medium before treatment. Tumor”, “[…]” for “4×10^−10”
as §11, §4, §5, §12

[9] = system: panel of 10 lymphoma cell lines; assay type: cell-based, human; conditions: conclusion
Method: as §10
[…] compounds in ¼ dilution step with a top dose of 400 μM (range 4×10^−4 to […]), with 1% (final concentration) Triton X-100 as positive control and FBS-free culture medium as negative control. The cells (190 μl) were incubated in a 200 μl final volume of FBS-free culture medium containing test substances at 37° C. under 5% CO2.
as §11, §4, §5, §12

[10] = system: U-87 MG cell line; assay type: cell-based, human; conditions: 4 h
Method: as §1, §2, §3, §4, §5, §6, §7

[11] = system: CCRF-CEM/VLB; experiment: MTS cytotoxicity assay, CCRF-CEM/VLB; assay type: cell-based, human; conditions: IC50 resistant / IC50 sensitive line
Method: as §1
as §2, with “The cells (190 μl) were incubated in a 200 μl final volume of FBS-free culture medium containing test substances at 37° C. under 5% CO2.” left out
Three independent experiments were performed, each concentration being tested in quadruplicate. […] At the end of treatments, the cytotoxic activity was evaluated by a MTS assay (see § 3.3.). […]
as §5, with “Culture plates were incubated for 2 h at 37° C.” left out, “France). […]” for “France).”
as §8

[12] = system: A375 cells; experiment: Confocal microscopy with fluorescence-labeled peptide (internalization); assay type: cell-based, human; conditions: 3 μM and 1.5 μM, 30-60 min
Method: Subconfluential A375 cells were seeded at 8,000 cells/well as above, and transfected on the second day using the Lipofectamine LTX with Plus transfection reagents (Invitrogen) following the manufacturer's protocol. The mitochondria were labeled using the pDsRed2-Mito, and the nucleus was labeled using the GFP-Histon2B plasmid (Imaging Platform, University of Tromsø). A day after transfection, cells were washed twice with serum-free RPMI, and treated at different concentration and incubation periods with LTX-315 Pacific Blue or LTX-328 Pacific Blue. […] Control cells were treated with unlabeled LTX-315 and also with serum-free RPMI only. After incubation, cells were fixed with 4% paraformaldehyde in PBS, and the wells were covered with Prolong Gold antifade (Invitrogen). Cells were further analyzed by use of a Leica TCS SP5 confocal microscope, with a […] objective. Pacific Blue, GFP and Ds Red were excited using UV, with 488 and 561 lasers, and fluorescence channels were sequentially detected using the following band passes: UV: 420-480 nm (with attenuation), 488: 501-550 nm and 561: 576-676 nm.

Row | IC50 [1] [µM] | IC50 [2] [µM] | IC50 [3] [µM] | IC50 range against 37 human cancer cell lines [3] | IC50 [7] [µM] | IC50 [8] [µM] | IC50 range against 10 human lymphoma cell lines [9] | IC50 [10] [µM] | Compound | Resistance index (RI), HL-60/ADR [4] | Resistance index (RI), MCF-7/mdr [5] | Resistance index (RI), IGROV-1/CDDP [6] | Resistance index (RI), CCRF-CEM/VLB [11] | Internalization of Pacific Blue-labeled peptide [12]
1 | 16.6 ± 3.15 | 3.46 ± 0.22 | 7.58 ± 2.79 | micromolar to ten micromolar range | 2.22 | 11.3 ± 3.42 | micromolar range |  | N=C(N)NCCC[C@H](NC(=O)[C@H](Cc1c[nH]c2ccccc12)NC(=O)[C@H](Cc1c[nH]c2ccccc12)NC(=O)[C@H](CCCNC(=N)N)NC(=O)[C@H](CCCNC(=N)N)NC(=O)[C@@H](NC(=O)[C@H](Cc1c[nH]c2ccccc12)NC(=O)[C@H](CCCNC(=N)N)NC(=O)[C@@H](N)CCCNC(=N)N)C(c1ccccc1)c1ccccc1)C(N)=O [LTX-320, R-R-W-Dip-R-R-W-W-R-NH2] (H-RRW[Dip]RRWWR-NH2; N-terminus assumed) | 0.90 | 1.19 | 0.49 |  | 
2 |  | 2.43 ± 0.34 | 8.17 ± 3.2 | micromolar to ten micromolar range | 2.46 | 8.7 ± 1.7 | micromolar range | 16.9 ± 1.18 | NCCCC[C@@H](N)C(=O)N[C@H](CCCCN)C(=O)N[C@H](Cc1ccc(-c2ccccc2)cc1)C(=O)N[C@H](Cc1c[nH]c2ccccc12)C(=O)N[C@H](CCCCN)C(=O)N[C@H](CCCCN)C(=O)N[C@H](Cc1c[nH]c2ccccc12)C(=O)N[C@H](Cc1c[nH]c2ccccc12)C(=O)N[C@H](CCCCN)C(N)=O [LTX-329, k-k-bip-w-k-k-w-w-k-NH2] (H-[dK][dK][dBip][dW][dK][dK][dW][dW][dK]-NH2; N-terminus assumed) | 0.80 | 1.07 | 0.46 | 0.76 | 
3 |  |  |  |  |  |  |  |  | K-A-Q-Dip-Q-K-Q-A-W-NH2 (KAQ[Dip]QKQAW-NH2; N-terminus assumed; SMILES C[C@H](NC(=O)[C@H](CCC(N)=O)NC(=O)[C@H](CCCCN)NC(=O)[C@H](CCC(N)=O)NC(=O)[C@@H](NC(=O)[C@H](CCC(N)=O)NC(=O)[C@H](C)NC(=O)[C@@H](N)CCCCN)C(c1ccccc1)c1ccccc1)C(=O)N[C@@H](Cc1c[nH]c2ccccc12)C(N)=O) [LTX-328, reference compound] |  |  |  |  | did not demonstrate any internalization at any concentration or incubation time tested
